ChEMBL document CHEMBL3112491, “3-(5-)-Amino-o-diarylisoxazoles: regioselective synthesis and antitubulin activity” (2014)
Calls of active or inactive are those of the source. No cut-off for these calls is given here.

Experiments:
Paracentrotus lividus [1] = assay: Microtubule destabilizing activity in sea urchin free-swimming blastula assessed as embryo spinning up to 4 uM treated at 9 to 10 hrs post-fertilization measured after 0.15 to 15 hrs; type: functional, organism-based
Paracentrotus lividus [2] = assay: Microtubule destabilizing activity in sea urchin free-swimming blastula assessed as embryo spinning treated at 9 to 10 hrs post-fertilization measured after 0.15 to 15 hrs; type: functional
Paracentrotus lividus [3] = assay: Antimitotic activity in sea urchin fertilized egg assessed as cleavage arrest treated at 8 to 20 mins post-fertilization measured at 2.5 to 5.5 hrs post-fertilization; type: functional
Paracentrotus lividus [4] = assay: Antimitotic activity in sea urchin fertilized egg assessed as cleavage alteration treated at 8 to 20 mins post-fertilization measured at 2.5 to 5.5 hrs post-fertilization; type: functional
SN12C = assay: Growth inhibition of human SN12C cells after 48 hrs by sulforhodamine B assay; type: functional
TK-10 = assay: Growth inhibition of human TK10 cells after 48 hrs by sulforhodamine B assay; type: functional; conditions: TK-10, 48 h
[5] = Growth inhibition of human RXF393 cells after 48 hrs by sulforhodamine B assay; type: functional; conditions: RXF 393, 48 h
A498 = assay: Growth inhibition of human A498 cells after 48 hrs by sulforhodamine B assay; type: functional; conditions: A498, 48 h
ACHN = assay: Growth inhibition of human ACHN cells after 48 hrs by sulforhodamine B assay; type: functional
786-0 = assay: Growth inhibition of human 786-0 cells after 48 hrs by sulforhodamine B assay; type: functional; conditions: 786-0, 48 h
SK-OV-3 = assay: Growth inhibition of human SKOV3 cells after 48 hrs by sulforhodamine B assay; type: functional; conditions: SK-OV-3, 48 h
OVCAR-8 = assay: Growth inhibition of human OVCAR8 cells after 48 hrs by sulforhodamine B assay; type: functional; conditions: OVCAR-8, 48 h
[6] = Growth inhibition of human NCI-ADR-RES cells after 48 hrs by sulforhodamine B assay; type: functional
[7] = Growth inhibition of human OVCAR5 cells after 48 hrs by sulforhodamine B assay; type: functional; conditions: OVCAR-5, 48 h
IGROV-1 = assay: Growth inhibition of human IGROV1 cells after 48 hrs by sulforhodamine B assay; type: functional; conditions: IGROV-1, 48 h
OVCAR-3 = assay: Growth inhibition of human OVCAR3 cells after 48 hrs by sulforhodamine B assay; type: functional; conditions: OVCAR-3, 48 h
UACC-62 = assay: Growth inhibition of human UACC62 cells after 48 hrs by sulforhodamine B assay; type: functional; conditions: UACC-62, 48 h
SK-MEL-28 = assay: Growth inhibition of human SK-MEL-28 cells after 48 hrs by sulforhodamine B assay; type: functional; conditions: SK-MEL-28, 48 h
SK-MEL-2 = assay: Growth inhibition of human SK-MEL-2 cells after 48 hrs by sulforhodamine B assay; type: functional; conditions: SK-MEL-2, 48 h
LOX IMVI = assay: Growth inhibition of human LOXIMVI cells after 48 hrs by sulforhodamine B assay; type: functional
U-251 = assay: Growth inhibition of human U251 cells after 48 hrs by sulforhodamine B assay; type: functional; conditions: U-251, 48 h
[8] = Growth inhibition of human SF539 cells after 48 hrs by sulforhodamine B assay; type: functional; conditions: SF-539, 48 h
SNB-19 = assay: Growth inhibition of human SNB19 cells after 48 hrs by sulforhodamine B assay; type: functional; conditions: SNB-19, 48 h
SF-295 = assay: Growth inhibition of human SF295 cells after 48 hrs by sulforhodamine B assay; type: functional; conditions: SF-295, 48 h
SF-268 = assay: Growth inhibition of human SF268 cells after 48 hrs by sulforhodamine B assay; type: functional; conditions: SF-268, 48 h
SW-620 = assay: Growth inhibition of human SW620 cells after 48 hrs by sulforhodamine B assay; type: functional; conditions: SW-620, 48 h
KM12 = assay: Growth inhibition of human KM12 cells after 48 hrs by sulforhodamine B assay; type: functional; conditions: KM12, 48 h
HT-29 = assay: Growth inhibition of human HT-29 cells after 48 hrs by sulforhodamine B assay; type: functional; conditions: HT-29, 48 h
HCT-15 = assay: Growth inhibition of human HCT15 cells after 48 hrs by sulforhodamine B assay; type: functional; conditions: HCT-15, 48 h
HCT-116 = assay: Growth inhibition of human HCT116 cells after 48 hrs by sulforhodamine B assay; type: functional; conditions: HCT-116, 48 h
[9] = Growth inhibition of human HCC2998 cells after 48 hrs by sulforhodamine B assay; type: functional; conditions: HCC 2998, 48 h
COLO 205 = assay: Growth inhibition of human COLO205 cells after 48 hrs by sulforhodamine B assay; type: functional; conditions: COLO 205, 48 h
NCI-H522 = assay: Growth inhibition of human NCI-H522 cells after 48 hrs by sulforhodamine B assay; type: functional; conditions: NCI-H522, 48 h
NCI-H460 = assay: Growth inhibition of human NCI-H460 cells after 48 hrs by sulforhodamine B assay; type: functional; conditions: NCI-H460, 48 h
NCI-H322M = assay: Growth inhibition of human NCI-H322M cells after 48 hrs by sulforhodamine B assay; type: functional
NCI-H226 = assay: Growth inhibition of human NCI-H226 cells after 48 hrs by sulforhodamine B assay; type: functional; conditions: NCI-H226, 48 h
HOP-62 = assay: Growth inhibition of human HOP62 cells after 48 hrs by sulforhodamine B assay; type: functional; conditions: HOP-62, 48 h
[10] = Growth inhibition of human HOP92 cells after 48 hrs by sulforhodamine B assay; type: functional; conditions: HOP-92, 48 h
[11] = Growth inhibition of human EKVX cells after 48 hrs by sulforhodamine B assay; type: functional
RPMI-8226 = assay: Growth inhibition of human RPMI8226 cells after 48 hrs by sulforhodamine B assay; type: functional; conditions: RPMI-8226, 48 h
SR = assay: Growth inhibition of human SR cells after 48 hrs by sulforhodamine B assay; type: functional
MOLT-4 = assay: Growth inhibition of human MOLT4 cells after 48 hrs by sulforhodamine B assay; type: functional; conditions: MOLT-4, 48 h
HL-60(TB) = assay: Growth inhibition of human HL-60(TB) cells after 48 hrs by sulforhodamine B assay; type: functional; conditions: HL-60, 48 h
CCRF-CEM = assay: Growth inhibition of human CCRF-CEM cells after 48 hrs by sulforhodamine B assay; type: functional

Q: With `COc1ccc(Cc2noc(-c3cccc(OC)c3)n2)cc1` as the compound, how does the Activity (Paracentrotus lividus [1]) read?
A: The Activity was “inactive”.

Q: For `COc1ccc(/C=C\c2cc(OC)c3c(c2)OCO3)cc1O` [Combretastatin A-2], which EC (Paracentrotus lividus [2]) is on record?
A: Its EC is 0.05 µM.

Q: What about the EC (Paracentrotus lividus [3]) of the same compound?
A: The EC was 0.01 µM.

Q: What about the EC (Paracentrotus lividus [4]) of the same compound?
A: Its EC is 0.002 µM.

Q: What does the source list for `COc1ccc(-c2c(N)noc2-c2cc(OC)c3c(c2)OCCO3)cc1`?
A: EC (Paracentrotus lividus [2]): 0.5 µM; EC (Paracentrotus lividus [3]): 0.02 µM; EC (Paracentrotus lividus [4]): 0.005 µM

Q: Which results are given for `COc1ccc(-c2c(-c3cc(OC)c4c(c3)OCO4)noc2N(C(C)=O)C(C)=O)cc1`?
A: EC (Paracentrotus lividus [2]): 0.5 µM; EC (Paracentrotus lividus [3]): 0.1 µM; EC (Paracentrotus lividus [4]): 0.02 µM

Q: What does the source list for `COc1ccc(-c2noc(N)c2-c2cc3c(c(OC)c2OC)OCO3)cc1`?
A: EC (Paracentrotus lividus [2]): >4 µM; EC (Paracentrotus lividus [3]): >4 µM; EC (Paracentrotus lividus [4]): >4 µM

Q: Which results are given for `COc1ccc(-c2onc(NC(C)=O)c2-c2cc(OC)c(OC)c(OC)c2)cc1`?
A: EC (Paracentrotus lividus [2]): >4 µM; EC (Paracentrotus lividus [3]): >4 µM; EC (Paracentrotus lividus [4]): >4 µM

Q: Which results are given for `COc1ccc(/C=C\c2cc(OC)c(OC)c(OC)c2)cc1O` [COMBRETASTATIN A4]?
A: GI50 (SN12C): 5.98 nM; GI50 (TK-10): 100 nM; GI50 [5]: 2.37 nM; GI50 (A498): 6.11 nM; GI50 (ACHN): 6.14 nM; GI50 (786-0): 100 nM; GI50 (SK-OV-3): 58.9 nM; GI50 (OVCAR-8): 2.99 nM; GI50 [6]: 1 nM; GI50 [7]: 100 nM; GI50 (IGROV-1): 14.6 nM; GI50 (OVCAR-3): 2.1 nM; GI50 (UACC-62): 5.51 nM; GI50 (SK-MEL-28): 8.07 nM; GI50 (SK-MEL-2): 4.37 nM; GI50 (LOX IMVI): 3.25 nM; GI50 (U-251): 4.03 nM; GI50 [8]: 2.54 nM; GI50 (SNB-19): 3.85 nM; GI50 (SF-295): 3.87 nM; GI50 (SF-268): 5.7 nM; GI50 (SW-620): 3.04 nM; GI50 (KM12): 4.99 nM; GI50 (HT-29): 100 nM; GI50 (HCT-15): 3.66 nM; GI50 (HCT-116): 3.28 nM; GI50 [9]: 63.4 nM; GI50 (COLO 205): 100 nM; GI50 (NCI-H522): 2.18 nM; GI50 (NCI-H460): 3.11 nM; GI50 (NCI-H322M): 7.45 nM; GI50 (NCI-H226): 3.81 nM; GI50 (HOP-62): 2.65 nM; GI50 [10]: 2.73 nM; GI50 [11]: 85.7 nM; GI50 (RPMI-8226): 3.42 nM; GI50 (SR): 2.99 nM; GI50 (MOLT-4): 3.27 nM; GI50 (HL-60(TB)): 2.16 nM; GI50 (CCRF-CEM): 2.62 nM; EC (Paracentrotus lividus [2]): 0.05 µM; EC (Paracentrotus lividus [3]): 0.01 µM; EC (Paracentrotus lividus [4]): 0.002 µM

Q: Which EC (Paracentrotus lividus [2]) does the source give for `COc1ccc(-c2c(NC(C)=O)noc2-c2cc(OC)c3c(c2)OCO3)cc1` here?
A: The EC was over 4 µM.

Q: And the EC (Paracentrotus lividus [3])?
A: The EC was over 4 µM.

Q: And the EC (Paracentrotus lividus [4])?
A: The EC was over 4 µM.

Q: With `COc1ccc(Cc2noc(-c3cc(OC)c(OC)c(OC)c3)n2)cc1` as the compound, how does the Activity (Paracentrotus lividus [1]) read?
A: The Activity was “inactive”.

Q: With `COc1ccc(-c2c(NC(C)=O)noc2-c2cc(OC)c3c(c2)OCCO3)cc1` as the compound, how does the EC (Paracentrotus lividus [2]) read?
A: The EC was over 4 µM.

Q: What about the EC (Paracentrotus lividus [3]) of the same compound?
A: The EC was over 4 µM.

Q: What about the EC (Paracentrotus lividus [4]) of the same compound?
A: Its EC is over 4 µM.

Q: Which results are given for `COc1ccc(-c2c(-c3cc(OC)c4c(c3OC)OCO4)noc2N)cc1`?
A: EC (Paracentrotus lividus [2]): >5 µM; EC (Paracentrotus lividus [3]): >5 µM; EC (Paracentrotus lividus [4]): 2 µM

Q: Which EC (Paracentrotus lividus [2]) does the source give for `COc1ccc(C(=O)Nc2noc(-c3ccc(OC)cc3)c2-c2cc(OC)c(OC)c(OC)c2)cc1` here?
A: The EC was over 4 µM.

Q: What about the EC (Paracentrotus lividus [3]) of the same compound?
A: The EC was over 4 µM.

Q: And the EC (Paracentrotus lividus [4])?
A: The EC was over 4 µM.

Q: For `COc1ccc(-c2c(-c3ccccc3)noc2N)cc1OC`, which EC (Paracentrotus lividus [2]) is on record?
A: The EC was 10 µM.

Q: What about the EC (Paracentrotus lividus [3]) of the same compound?
A: Its EC is 10 µM.

Q: What about the EC (Paracentrotus lividus [4]) of the same compound?
A: Its EC is 0.5 µM.

Q: Which EC (Paracentrotus lividus [2]) does the source give for `COc1ccc(-c2c(NC(C)=O)noc2-c2cccc(OC)c2)cc1` here?
A: The EC was over 4 µM.

Q: What about the EC (Paracentrotus lividus [3]) of the same compound?
A: The EC was over 4 µM.

Q: What about the EC (Paracentrotus lividus [4]) of the same compound?
A: The EC was over 4 µM.

Q: What does the source list for `COc1ccc(-c2onc(NC(C)=O)c2-c2ccc(OC)cc2)cc1`?
A: EC (Paracentrotus lividus [2]): >4 µM; EC (Paracentrotus lividus [3]): >4 µM; EC (Paracentrotus lividus [4]): >4 µM

Q: For `COc1ccc(-c2onc(N)c2-c2cc3c(c(OC)c2OC)OCO3)cc1`, which EC (Paracentrotus lividus [2]) is on record?
A: Its EC is over 4 µM.

Q: What about the EC (Paracentrotus lividus [3]) of the same compound?
A: Its EC is over 4 µM.

Q: What about the EC (Paracentrotus lividus [4]) of the same compound?
A: The EC was 4 µM.

Q: For `COc1ccc(Cc2noc(-c3cc4c(c(OC)c3OC)OCO4)n2)cc1`, which Activity (Paracentrotus lividus [1]) is on record?
A: The Activity was “inactive”.
